Experimental data as given in ChEMBL document CHEMBL3585260, “2-Aminoalkyl nicotinamide derivatives as pure inverse agonists of the ghrelin receptor” (Bioorg Med Chem Lett, 2015).
One block for each molecule: values may come before it. The source made the active and inactive calls. The calls are words filed in the database; no cut-off is given here.

Legend:
[1] = molecular target: T1, Growth hormone secretagogue receptor type 1 (Homo sapiens, UniProt Q92847); test: Binding affinity to ghrelin receptor (unknown origin)
T1 sequence (Q92847 whole entry): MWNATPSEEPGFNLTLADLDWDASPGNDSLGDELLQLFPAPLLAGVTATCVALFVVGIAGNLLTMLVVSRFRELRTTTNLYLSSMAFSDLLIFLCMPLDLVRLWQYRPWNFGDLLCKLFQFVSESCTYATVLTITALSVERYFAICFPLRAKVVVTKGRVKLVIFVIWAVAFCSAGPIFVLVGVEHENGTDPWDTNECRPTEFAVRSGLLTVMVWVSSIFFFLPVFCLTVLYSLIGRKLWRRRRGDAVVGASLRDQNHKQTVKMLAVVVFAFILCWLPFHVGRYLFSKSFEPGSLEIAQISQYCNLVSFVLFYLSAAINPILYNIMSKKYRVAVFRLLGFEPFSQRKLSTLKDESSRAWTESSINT

[2] = molecular target: Growth hormone secretagogue receptor type 1 (Rattus norvegicus) (UniProt O08725); test: Inverse agonist activity at rat ghrelin receptor expressed in HEK293 cells assessed as blockade of constitutive receptor activity b by NFAT-RE-luciferase reporter gene assay; assay type: cell-based
Sequence of Growth hormone secretagogue receptor type 1 (Rattus norvegicus) (O08725 whole entry): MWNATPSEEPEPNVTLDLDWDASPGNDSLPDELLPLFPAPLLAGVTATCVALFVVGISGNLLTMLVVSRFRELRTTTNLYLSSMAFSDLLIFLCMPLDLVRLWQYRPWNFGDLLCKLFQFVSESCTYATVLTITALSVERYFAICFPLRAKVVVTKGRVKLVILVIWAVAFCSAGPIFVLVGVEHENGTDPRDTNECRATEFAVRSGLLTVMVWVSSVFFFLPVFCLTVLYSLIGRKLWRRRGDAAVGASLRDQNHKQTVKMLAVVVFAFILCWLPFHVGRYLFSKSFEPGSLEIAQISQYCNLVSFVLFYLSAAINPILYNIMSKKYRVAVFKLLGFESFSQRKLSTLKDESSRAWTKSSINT

[3] = molecular target: T2, Growth hormone secretagogue receptor type 1 (Rattus norvegicus, UniProt O08725); test: Inverse agonist activity at rat ghrelin receptor expressed in HEK293 cells by NFAT-RE-luciferase reporter gene assay; assay type: cell-based
T2 sequence (O08725 whole entry): as above

[4] = molecular target: Neurotensin receptor type 2 (Homo sapiens) (UniProt O95665); test: Inverse agonist activity at NTSR2 (unknown origin) expressed in HEK293 cells assessed as suppression of constitutive receptor activity by NFAT-RE-luciferase reporter gene assay; assay type: cell-based
Sequence of Neurotensin receptor type 2 (Homo sapiens) (O95665 whole entry): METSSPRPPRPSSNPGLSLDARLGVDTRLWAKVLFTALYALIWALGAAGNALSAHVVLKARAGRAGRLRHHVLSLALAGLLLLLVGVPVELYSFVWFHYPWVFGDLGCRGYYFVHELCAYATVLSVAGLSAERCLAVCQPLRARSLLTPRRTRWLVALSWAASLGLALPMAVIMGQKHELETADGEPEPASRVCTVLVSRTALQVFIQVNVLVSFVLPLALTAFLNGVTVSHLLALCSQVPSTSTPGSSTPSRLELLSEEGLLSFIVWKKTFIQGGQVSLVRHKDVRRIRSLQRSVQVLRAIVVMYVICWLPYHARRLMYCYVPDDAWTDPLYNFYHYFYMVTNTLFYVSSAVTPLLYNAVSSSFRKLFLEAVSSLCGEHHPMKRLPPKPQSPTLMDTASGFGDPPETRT

[5] = Toxicity against HEK293 cells assessed as cell viability at 2 uM by alamar blue staining method; assay type: cell-based; conditions: human, read-out: Activity
[6] = Toxicity against HEK293 cells assessed as cell viability at 50 uM by alamar blue staining method; assay type: cell-based; conditions: human, read-out: Activity
[7] = molecular target: D(2) dopamine receptor (Homo sapiens) (UniProt P14416); test: Inhibition of radioligand binding at dopamine D2 receptor (unknown origin) at 10 uM
Mus musculus [8] = test: Toxicity in mouse model of high fat diet-induced obesity assessed as induction of behavioral effect at 10 and 30 mg/kg, sc; assay type: organism-based; conditions: in vivo
Rattus norvegicus [9] = test: Inhibition of ghrelin-induced growth hormone release in rat at 3 mg/kg, iv pre-treated 5 mins before ghrelin challenge; assay type: functional, organism-based
Mus musculus [10] = test: Inhibition of ghrelin-induced food intake in mouse model of high fat diet-induced obesity at 10 mg/kg, sc dosed twice daily for 14 days; assay type: functional, organism-based
CYP3A4 = CYP3A4 (Homo sapiens, UniProt P08684); test: Inhibition of CYP3A4 (unknown origin) at 10 uM; assay type: ADME
Sequence of CYP3A4 (P08684 whole entry): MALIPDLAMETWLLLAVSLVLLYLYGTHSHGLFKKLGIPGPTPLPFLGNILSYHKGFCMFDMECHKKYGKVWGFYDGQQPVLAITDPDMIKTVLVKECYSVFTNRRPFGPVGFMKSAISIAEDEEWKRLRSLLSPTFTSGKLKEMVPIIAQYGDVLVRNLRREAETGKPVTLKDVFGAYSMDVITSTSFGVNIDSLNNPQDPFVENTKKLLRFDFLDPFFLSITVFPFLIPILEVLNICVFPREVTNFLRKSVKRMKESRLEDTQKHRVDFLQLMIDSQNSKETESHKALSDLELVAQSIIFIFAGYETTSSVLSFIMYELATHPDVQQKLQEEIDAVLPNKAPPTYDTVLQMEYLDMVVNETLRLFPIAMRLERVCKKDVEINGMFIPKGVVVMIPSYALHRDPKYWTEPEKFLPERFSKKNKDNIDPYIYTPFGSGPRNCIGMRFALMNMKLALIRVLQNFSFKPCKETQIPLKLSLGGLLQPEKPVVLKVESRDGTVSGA

[11] = molecular target: Adrenergic receptor alpha-2 (Homo sapiens) (UniProt P08913+P18825+P18089); test: Inhibition of radioligand binding at alpha-2 adrenergic receptor (unknown origin) at 10 uM
[12] = Bioavailability in mouse at 10 mg/kg, ip administered as single dose; assay type: ADME, organism-based; conditions: in vivo
hERG (KCNH2) = hERG (KCNH2) (Homo sapiens, UniProt Q12809); test: Inhibition of human ERG at 10 uM
Sequence of hERG (KCNH2) (Q12809 whole entry): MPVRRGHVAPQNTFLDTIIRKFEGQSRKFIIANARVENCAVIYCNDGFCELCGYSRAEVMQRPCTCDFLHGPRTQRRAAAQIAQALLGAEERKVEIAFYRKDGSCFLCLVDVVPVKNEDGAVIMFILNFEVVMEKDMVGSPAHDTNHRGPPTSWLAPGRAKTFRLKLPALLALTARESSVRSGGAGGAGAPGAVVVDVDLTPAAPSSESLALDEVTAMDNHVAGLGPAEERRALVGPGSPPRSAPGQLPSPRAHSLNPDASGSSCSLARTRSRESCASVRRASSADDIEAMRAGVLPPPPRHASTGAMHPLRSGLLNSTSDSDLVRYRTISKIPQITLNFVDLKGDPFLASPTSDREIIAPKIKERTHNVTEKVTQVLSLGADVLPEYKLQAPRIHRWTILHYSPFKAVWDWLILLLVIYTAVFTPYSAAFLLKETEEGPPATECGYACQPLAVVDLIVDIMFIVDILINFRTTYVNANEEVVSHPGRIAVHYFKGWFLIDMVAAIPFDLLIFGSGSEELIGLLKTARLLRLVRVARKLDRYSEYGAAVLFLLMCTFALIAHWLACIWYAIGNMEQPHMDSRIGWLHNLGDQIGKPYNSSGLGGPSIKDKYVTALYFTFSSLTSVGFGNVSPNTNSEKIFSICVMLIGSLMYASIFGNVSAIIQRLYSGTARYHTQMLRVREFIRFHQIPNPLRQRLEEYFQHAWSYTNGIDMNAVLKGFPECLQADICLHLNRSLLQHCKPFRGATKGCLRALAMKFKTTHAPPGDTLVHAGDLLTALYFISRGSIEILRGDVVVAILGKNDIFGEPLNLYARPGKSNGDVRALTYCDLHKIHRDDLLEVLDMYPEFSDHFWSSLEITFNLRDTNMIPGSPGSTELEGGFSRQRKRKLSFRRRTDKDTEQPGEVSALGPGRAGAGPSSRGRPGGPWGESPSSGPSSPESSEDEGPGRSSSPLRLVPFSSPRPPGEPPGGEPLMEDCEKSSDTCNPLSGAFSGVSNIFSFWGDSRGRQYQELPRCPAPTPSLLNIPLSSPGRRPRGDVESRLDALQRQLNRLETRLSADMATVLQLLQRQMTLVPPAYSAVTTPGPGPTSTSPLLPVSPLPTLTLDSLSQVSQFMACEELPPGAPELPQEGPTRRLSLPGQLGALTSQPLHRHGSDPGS

[13] = molecular target: Motilin receptor (Homo sapiens) (UniProt O43193); test: Inhibition of radioligand binding at human MTLR1 at 10 uM
Sequence of Motilin receptor (Homo sapiens) (O43193 whole entry): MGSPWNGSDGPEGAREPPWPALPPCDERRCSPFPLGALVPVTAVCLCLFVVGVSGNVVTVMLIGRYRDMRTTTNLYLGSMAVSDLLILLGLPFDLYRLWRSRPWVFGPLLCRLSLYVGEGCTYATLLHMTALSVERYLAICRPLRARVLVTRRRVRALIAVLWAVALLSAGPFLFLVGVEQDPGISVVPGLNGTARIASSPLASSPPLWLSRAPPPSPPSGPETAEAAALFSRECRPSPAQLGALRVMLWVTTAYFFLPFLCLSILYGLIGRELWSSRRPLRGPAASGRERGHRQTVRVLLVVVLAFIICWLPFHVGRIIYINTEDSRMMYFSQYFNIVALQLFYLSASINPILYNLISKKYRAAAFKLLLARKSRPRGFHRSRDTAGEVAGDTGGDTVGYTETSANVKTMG

[14] = Ratio of drug level in brain to plasma in mouse at 10 mg/kg, ip administered as single dose after 1 hr; assay type: ADME, organism-based; conditions: brain and plasma, read-out: BPR
[15] = Bioavailability in mouse at 10 mg/kg, sc administered as single dose; assay type: ADME, organism-based; conditions: in vivo
[16] = molecular target: T1, Growth hormone secretagogue receptor type 1; test: Antagonist activity against ghrelin receptor (unknown origin) expressed in CHO cells assessed as inhibition of ghrelin-induced calcium response; assay type: functional, cell-based
[17] = Protein binding in human plasma; assay type: ADME, cell-free; conditions: read-out: PPB
[18] = molecular target: D(1A) dopamine receptor (Homo sapiens) (UniProt P21728); test: Inhibition of radioligand binding at dopamine D1 receptor (unknown origin) at 10 uM
Sequence of D(1A) dopamine receptor (Homo sapiens) (P21728 whole entry): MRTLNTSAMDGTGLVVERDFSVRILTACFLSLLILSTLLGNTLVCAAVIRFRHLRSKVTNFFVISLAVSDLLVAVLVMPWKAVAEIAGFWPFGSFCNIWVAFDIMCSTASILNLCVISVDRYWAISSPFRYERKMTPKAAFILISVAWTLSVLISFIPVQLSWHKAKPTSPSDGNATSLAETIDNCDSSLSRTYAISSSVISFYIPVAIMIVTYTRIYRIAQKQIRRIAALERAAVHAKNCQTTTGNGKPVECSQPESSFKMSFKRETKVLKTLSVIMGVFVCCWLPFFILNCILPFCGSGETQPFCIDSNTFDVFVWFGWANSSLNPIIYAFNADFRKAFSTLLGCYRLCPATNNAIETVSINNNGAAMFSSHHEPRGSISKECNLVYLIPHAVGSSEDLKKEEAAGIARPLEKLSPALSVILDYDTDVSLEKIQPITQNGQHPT

[19] = Oral bioavailability in mouse at 10 mg/kg, administered as single dose; assay type: ADME, organism-based; conditions: in vivo
[20] = molecular target: Cannabinoid receptor 1 (Homo sapiens) (UniProt P21554); test: Inhibition of radioligand binding at human CB1 receptor at 10 uM
Rattus norvegicus [21] = test: Inhibition of ghrelin-induced gastric emptying in rat assessed as suppression of gastric motility at 10 mg/kg, sc pre-treated 15 mins before ghrelin challenge; assay type: functional, organism-based; conditions: Stomach
Rattus norvegicus [22] = test: Toxicity in rat assessed as induction of behavioral effect at 10 to 30 mg/kg, ip; assay type: organism-based; conditions: in vivo
Mus musculus [23] = test: Inhibition of ghrelin-induced food intake in mouse model of high fat diet-induced obesity at 30 mg/kg, sc dosed twice daily for 14 days; assay type: functional, organism-based
[24] = molecular target: Neuropeptide Y receptor type 1 (Homo sapiens) (UniProt P25929); test: Inhibition of radioligand binding at human neuropeptide Y1 receptor at 10 uM
Salmonella typhimurium = test: Mutagenicity in Salmonella typhimurium by Ames test; assay type: toxicity, organism-based; conditions: salmonella enterica subsp. enterica serovar typhimurium
[25] = molecular target: 5-hydroxytryptamine receptor 2C (Homo sapiens) (UniProt P28335); test: Inhibition of radioligand binding at human 5HT2C receptor at 10 uM
Rattus norvegicus [26] = test: Toxicity in rat assessed as induction of sedation at 10 to 30 mg/kg, ip; assay type: organism-based; conditions: in vivo
Mus musculus [27] = test: Toxicity in mouse model of high fat diet-induced obesity assessed as induction of sedation at 10 and 30 mg/kg, sc; assay type: organism-based; conditions: in vivo
[28] = Total clearance in mouse at 10 mg/kg administered as single dose; assay type: ADME, organism-based; conditions: in vivo
[29] = molecular target: Sodium-dependent serotonin transporter (Homo sapiens) (UniProt P31645); test: Inhibition of radioligand binding at human SERT at 10 uM
Sequence of Sodium-dependent serotonin transporter (Homo sapiens) (P31645 whole entry, looked up): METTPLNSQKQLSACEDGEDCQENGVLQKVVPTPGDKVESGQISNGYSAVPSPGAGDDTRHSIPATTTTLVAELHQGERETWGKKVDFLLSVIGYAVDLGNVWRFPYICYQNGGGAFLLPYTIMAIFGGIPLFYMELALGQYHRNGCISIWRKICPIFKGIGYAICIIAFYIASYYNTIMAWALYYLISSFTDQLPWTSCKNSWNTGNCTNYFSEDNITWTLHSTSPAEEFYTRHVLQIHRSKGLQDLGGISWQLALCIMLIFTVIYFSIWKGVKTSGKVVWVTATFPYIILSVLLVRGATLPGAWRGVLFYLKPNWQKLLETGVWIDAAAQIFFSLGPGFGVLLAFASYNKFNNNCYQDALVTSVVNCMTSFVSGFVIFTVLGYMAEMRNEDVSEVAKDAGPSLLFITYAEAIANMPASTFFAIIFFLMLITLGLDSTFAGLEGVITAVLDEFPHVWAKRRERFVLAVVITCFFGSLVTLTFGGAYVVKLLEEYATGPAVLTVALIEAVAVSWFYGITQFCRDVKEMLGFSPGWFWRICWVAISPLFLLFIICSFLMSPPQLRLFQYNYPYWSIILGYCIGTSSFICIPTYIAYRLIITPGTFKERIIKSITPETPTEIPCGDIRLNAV

[30] = molecular target: Melanocortin receptor 4 (Homo sapiens) (UniProt P32245); test: Inhibition of radioligand binding at human melanocortin MC4 receptor at 10 uM
Liver microsome = test: Drug metabolism in human liver microsomes; assay type: ADME
[31] = molecular target: Sodium-dependent noradrenaline transporter (Homo sapiens) (UniProt P23975); test: Inhibition of radioligand binding at human NET at 10 uM
Rattus norvegicus [32] = test: Inhibition of ghrelin-induced gastric emptying in rat assessed as suppression of gastric content at 10 mg/kg, sc pre-treated 15 mins before ghrelin challenge; assay type: functional, organism-based; conditions: Stomach
Rattus norvegicus [33] = test: Inhibition of ghrelin-induced food intake in rat at 15 to 30 mg/kg, ip after 30 mins; assay type: functional, organism-based
[34] = molecular target: Cholecystokinin receptor type A (Homo sapiens) (UniProt P32238); test: Inhibition of radioligand binding at human CCKA at 10 uM
Sequence of Cholecystokinin receptor type A (Homo sapiens) (P32238 whole entry): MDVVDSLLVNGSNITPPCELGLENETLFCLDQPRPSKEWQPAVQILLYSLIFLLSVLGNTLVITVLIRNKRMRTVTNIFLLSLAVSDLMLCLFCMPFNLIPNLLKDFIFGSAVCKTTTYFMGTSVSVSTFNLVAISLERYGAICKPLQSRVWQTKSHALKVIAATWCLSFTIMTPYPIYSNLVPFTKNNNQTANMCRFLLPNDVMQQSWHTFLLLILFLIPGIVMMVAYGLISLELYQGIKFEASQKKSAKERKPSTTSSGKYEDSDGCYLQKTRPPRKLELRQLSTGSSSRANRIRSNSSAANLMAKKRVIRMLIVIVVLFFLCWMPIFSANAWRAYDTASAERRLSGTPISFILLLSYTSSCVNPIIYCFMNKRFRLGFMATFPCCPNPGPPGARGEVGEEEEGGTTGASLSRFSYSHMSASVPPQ

[35] = Inhibition of ghrelin-induced growth hormone release in rat primary pituitary cells; assay type: functional, cell-based; conditions: Pituitary gland cell
HEK293 [36] = test: Toxicity against HEK293 cells assessed as cell viability up to 10 uM by alamar blue staining method; assay type: cell-based; conditions: human
HEK293 [37] = test: Toxicity against HEK293 cells assessed as cell viability at >10 uM by alamar blue staining method; assay type: cell-based; conditions: human
[38] = molecular target: T2, Growth hormone secretagogue receptor type 1; test: Inverse agonist activity at rat ghrelin receptor expressed in HEK293 cells by inositol phosphate turnover assay; assay type: functional, cell-based
[39] = molecular target: T2, Growth hormone secretagogue receptor type 1; test: Inverse agonist activity at rat ghrelin receptor by inositol phosphate turnover assay; assay type: functional

Molecule: CCCn1cc(-c2cnc(NCc3ccc4ncsc4c3)c(C(=O)NCC3COc4ccccc4O3)c2)cn1 (stereo not drawn)
IC50 [1]: 260 nM
Efficacy [2]: > 95%
IC50 [3]: 900 nM
Activity [4]: inactive

Molecule: CCCn1cc(-c2cnc(NCc3ccc4c(c3)OCO4)c(C(=O)NCC3COc4ccccc4O3)c2)cn1 (stereo not drawn)
viability at 2 µM [5]: 85%
viability at 50 µM [6]: 69%
IC50 [1]: 36 nM
Efficacy [2]: > 95%
IC50 [3]: 170 nM
Activity [4]: inactive

Molecule: CCn1cc(-c2cnc(NCc3ccc4c(c3)OCO4)c(C(=O)NC[C@@H]3COc4ccccc4O3)c2)cn1
IC50 [1]: 180 nM
Efficacy [2]: > 95%
IC50 [3]: 5500 nM
Activity [4]: inactive

Molecule: O=C(NC[C@H]1COc2ccccc2O1)c1cc(N2CCOCC2)cnc1NCc1ccc2c(c1)OCO2
IC50 [1]: 47 nM
Efficacy [2]: > 95%
IC50 [3]: 2000 nM
Activity [4]: inactive

Molecule: C[C@@H]1CN(c2cnc(NCc3ccc4c(c3)OCC4)c(C(=O)NC[C@H]3COc4ccccc4O3)c2)C[C@H](C)O1
IC50 [1]: 7.2 nM
Efficacy [2]: > 95%
IC50 [3]: 350 nM
Activity [4]: inactive

Molecule: CC(=O)N1[C@@H]2CC[C@H]1C=C(c1cnc(NCc3ccc4c(c3)OCC4)c(C(=O)NC[C@H]3COc4ccccc4O3)c1)C2 (mixture of isomers)
inhibition [7]: 7.1%
Activity (Mus musculus [8]): Non-toxic
inhibition (Rattus norvegicus [9]): Active
inhibition (Mus musculus [10]): Active
inhibition at 10 µM (CYP3A4): 26%
inhibition [11]: 12.6%
bioavailability [12]: 83.2%
inhibition at 10 µM (hERG (KCNH2)): 36%
inhibition [13]: 18.8%
Kp at 1 h [14]: 0.005
bioavailability [15]: 99.1%
IC50 [16]: 31 nM
fraction unbound [17]: 0.01
inhibition [18]: 5.6%
bioavailability [19]: 0.64%
inhibition [20]: 0%
inhibition (Rattus norvegicus [21]): Active
Activity (Rattus norvegicus [22]): Non-toxic
inhibition (Mus musculus [23]): Active
inhibition [24]: 1%
Activity (Salmonella typhimurium): Non-toxic
inhibition [25]: 7.1%
IC50 [1]: 0.96 nM
Activity (Rattus norvegicus [26]): Non-toxic
Activity (Mus musculus [27]): Non-toxic
Efficacy [2]: > 95%
clearance [28]: 68.2 mL/min/kg
IC50 [3]: 47 nM
inhibition [29]: 0%
inhibition [30]: 2.4%
Drug metabolism (Liver microsome): 302 pmol/min/mg
inhibition [31]: 0%
inhibition (Rattus norvegicus [32]): Active
inhibition (Rattus norvegicus [33]): Active
inhibition [34]: 0%
IC50 [35]: 13 nM
Activity [4]: inactive

Molecule: CC(C)N1[C@@H]2CC[C@H]1C=C(c1cnc(NCc3ccc4c(c3)OCC4)c(C(=O)NC[C@H]3COc4ccccc4O3)c1)C2 (mixture of isomers)
Activity (HEK293 [36]): Toxic
Activity (HEK293 [37]): Toxic
IC50 [1]: 0.23 nM
Efficacy [2]: > 95%
IC50 [3]: 4.1 nM
Activity [4]: inactive

Molecule: CCCn1cc(-c2cnc(NCc3ccc4sccc4c3)c(C(=O)NCC3COc4ccccc4O3)c2)cn1 (racemic)
viability at 2 µM [5]: 101%
viability at 50 µM [6]: 92%
IC50 [1]: 84 nM
Efficacy [2]: > 95%
IC50 [3]: 400 nM
Activity [4]: inactive

Molecule: O=C(NCC1COc2ccccc2O1)c1cc(-c2ccnc(Cl)c2)cnc1NCc1ccc2c(c1)OCC2 (racemic)
IC50 [1]: 6.9 nM
Efficacy [2]: > 95%
IC50 [3]: 390 nM
Activity [4]: inactive

Molecule: H-RPKPFQWFWLL-NH2
IC50 [38]: 146 nM
IC50 [39]: 5.2 nM
IC50 [3]: 250 nM

The remaining molecules from weak to strong by IC50 [3], led by results:

IC50 [1]: 42 nM
Efficacy [2]: > 95%
IC50 [3]: 2500 nM
Activity [4]: inactive
Molecule: CC(=O)N1CC=C(c2cnc(NCc3ccc4c(c3)OCO4)c(C(=O)NC[C@H]3COc4ccccc4O3)c2)CC1

IC50 [1]: 150 nM
Efficacy [2]: > 95%
IC50 [3]: 720 nM
Activity [4]: inactive
Molecule: CCCn1cc(-c2cnc(NCc3ccc4occc4c3)c(C(=O)NCC3COc4ccccc4O3)c2)cn1 (stereo not drawn)

IC50 [1]: 5.4 nM
Efficacy [2]: > 95%
IC50 [3]: 560 nM
Activity [4]: inactive
Molecule: O=C(NC[C@H]1COc2ccccc2O1)c1cc(N2C[C@H]3CC[C@@H](C2)O3)cnc1NCc1ccc2c(c1)OCO2

IC50 [1]: 11 nM
Efficacy [2]: > 95%
IC50 [3]: 140 nM
Activity [4]: inactive
Molecule: CCCn1cc(-c2cnc(NCc3ccc4c(c3)OCC4)c(C(=O)NCC3COc4ccccc4O3)c2)cn1 (racemic)

IC50 [1]: 24 nM
Efficacy [2]: > 95%
IC50 [3]: 110 nM
Activity [4]: inactive
Molecule: CCn1cc(-c2cnc(NCc3ccc4c(c3)OCO4)c(C(=O)NC[C@H]3COc4ccccc4O3)c2)cn1
